# Source: patent publication US8372813B2, “Antibacterial aminoglycoside analogs” (Achaogen, Inc., priority 2008, dated 2013)
# Tests used:
# [1] = system: E. coli ATCC 25922 (AECO001); test: MIC assay, CLSI broth microdilution; format: cell-based; details: Escherichia coli; ATCC25922; Mueller Hinton Broth, 35C, 20 hours
# Protocol: (§1) Minimum inhibitory concentrations (MIC) were determined by reference Clinical and Laboratory Standards Institute (CLSI) broth microdilution methods per M7-A7 [2006]. Quality control ranges utilizing E. coli ATCC 25922, P. aeruginosa ATCC 27853 and S. aureus ATCC 29213, and interpretive criteria for comparator agents were as published in CLSI M100-S17 [2007]. Briefly, serial two-fold dilutions of the test compounds were prepared at 2× concentration in Mueller Hinton Broth. The compound dilutions were mixed in 96-well assay plates in a 1:1 ratio with bacterial inoculum. The inoculum was prepared by suspension of a colony from an agar plate that was prepared the previous day. Bacteria were suspended in sterile saline and added to each assay plate to obtain a final concentration of 5×10^5 CFU/mL. The plates were incubated at 35C for 20 hours in ambient air.
# [2] = system: P. aeruginosa ATCC 27853 (APAE001); test: MIC assay, CLSI broth microdilution; format: cell-based; details: Pseudomonas aeruginosa; ATCC27853; Mueller Hinton Broth, 35C, 20 hours
# Protocol: as §1
smiles,measurement,setting,value
NCC[C@H](O)C(=O)N[C@@H]1C[C@H](N)[C@@H](O[C@H]2O[C@H](CNCCO)CC[C@H]2N)[C@H](O[C@@H]2O[C@H](CO)[C@@H](O[C@H]3O[C@@H](CN)[C@@H](O)[C@H](O)[C@H]3N)[C@H]2O)[C@H]1O [1/20],MIC,[1],≤ 1 µg/mL
same,MIC,[2],≤ 1 µg/mL
